For the compound `O=C(O)CCCNc1ccccc1[N+](=O)[O-]`, the melting point was in the range of 115 to 119 °C.
For `CC1(C)CCCCC1CC(=O)O` (stereo not drawn) the value was 41 to 43 °C.
Next, `Cc1cc2ncn(Cc3ccc(Cl)cc3)c2cc1C`: 143 to 145 °C; `Cc1nn(-c2ccc(F)cc2)cc1C=O`: 91 to 93 °C; `CC(=O)c1ccc(C(F)(F)C(=O)O)n1C`: 115 to 117 °C.
For `O=C(Nc1cccc(C(=O)O)c1)Nc1ccc(Cl)c(Cl)c1` the value was 279 to 281 °C; for `CN(C)c1cccc(-c2nnc(S)n2N)c1`, 209 to 211 °C.
For the compound `CN(C)c1cccc(-c2nnc(N)o2)c1`, the melting point lay within 175 to 177 °C.
Next, `Nc1ccc(-c2cccc(C(F)(F)F)c2)cn1`: 101 to 103 °C; `O=C(O)c1ccc(S(=O)(=O)Nc2ccccc2F)cc1`: 266 to 268 °C; `O=C(Cc1ccc(Br)cc1)Nc1ccc(C(=O)O)cc1`: 282 to 284 °C.
For `O=C(Cc1ccccn1)c1cccnc1` the value was 66 to 68 °C; for `CCNc1ccc(C)nn1`, 99 to 101 °C; for `COc1ccccc1OCCBr`, 39 to 41 °C.
In turn, `O=c1[nH]cnc2c1CCNC2` returned a melting point of 251 to 253 °C.
As for `Cc1ccc(NC(=O)CCl)c(Cl)c1`, the melting point is 98 to 100 °C.
For `Nc1ccc(OCc2ccccn2)c(Cl)c1` the value was 91 to 93 °C; for `CSc1ccc(C(=O)O)o1`, 126 to 128 °C.
For `Clc1cc2nc(-c3ccccc3)nn2cn1` the value was 225 to 227 °C; for `COc1cccc(C(=O)O)c1OC(F)F`, 152 to 154 °C; for `O=C(O)C(=O)Nc1ccc(Br)cc1C(F)(F)F`, 116 to 118 °C.
For `O=C(O)/C=C/c1cccc(Cl)c1Cl` the value was 233 to 235 °C; for `Nc1cc(Br)cnc1-n1cccn1`, 72 to 74 °C; for `N#CCc1nc2cc(F)ccc2s1`, 133 to 135 °C.
For the compound `CCS(=O)(=O)N1Cc2ccccc2CC1C(=O)O` (stereo not drawn), the melting point was 110 to 114 °C.
Next, `Cc1nn(C)c(Cl)c1C#N`: 55 to 57 °C; `O=C(O)c1cnc(COc2ccccc2)s1`: 174 to 176 °C; `Cc1sc2nc(-c3ccccn3)nc(Cl)c2c1-c1ccccc1`: 166 to 168 °C.
For `NNC(=S)NCCc1ccccn1` the value was 124 to 126 °C; for `Nc1nc2cc(Br)ccc2n1Cc1ccccc1`, 213 to 215 °C.
As for `Cc1ccc(NC(=O)c2cccc(Cl)c2)c(C(=O)O)c1`, the melting point was in the range of 191 to 193 °C.
Compound `O=C(O)C(=O)c1ccc(Cl)cc1` gave a melting point of 87 to 89 °C.
Next, `CC1CC(C)CC2(C1)NC(=O)NC2=O` (stereo not drawn): 299 to 301 °C; `O=C(O)C(F)(F)c1ccc(F)cc1`: 99 to 101 °C.
For `O=C(O)c1ccc(N2CCNC2=O)cc1` the value was 313 to 315 °C.
For `O=C(CCc1ccccc1)NC1CCN(C(=O)CCl)CC1` the value was 144 to 146 °C; for `CS(=O)(=O)N1CCC(C(=O)O)CC1`, 159 to 161 °C.
`Sc1nncn1CCc1ccccn1`: the melting point was in the range of 204 to 206 °C.
The compound `NNc1ccc(S(=O)(=O)NCc2ccco2)cn1` yielded a melting point of 144 to 146 °C.
With `O=C(C1OCCc2ccccc21)N1CCCC1` (stereo not drawn), the melting point was in the range of 109 to 111 °C.
For `CCc1ccc(-c2csc(NC(=O)C(C)Cl)n2)cc1` (stereo not drawn) the value was 108 to 110 °C; for `O=C(Cc1ccccc1)NC1CCNCC1`, 139 to 141 °C; for `O=c1[nH]cc(S(=O)(=O)Cl)c(=O)[nH]1`, 155 to 157 °C.
For `CNC(=O)c1ccccc1O` the value was 83 to 85 °C.
`Cn1c2ccccc2n2c(S)nnc12` gave a melting point of 270 to 272 °C.
`Nc1ccc2nc(CN3CCOCC3)[nH]c2c1` came in with a melting point of 160 to 162 °C.
For `COc1ccc(C(N)CC(=O)O)cc1` (stereo not drawn) the value was 237 to 239 °C; for `NC(=O)c1cc(-c2ccccc2)sc1NC(=O)CCl`, 208 to 210 °C; for `Cc1ccc(C23CC4CC(CC(C(=O)O)(C4)C2)C3)cc1`, 174 to 176 °C.
As for `CC1C(=O)NC(=O)C1C` (stereo not drawn), the melting point is 56 to 58 °C.
Next, `Nc1cc(-c2cccs2)no1`: 91 to 93 °C; `O=C(O)c1cc2c(cc1[N+](=O)[O-])OCCO2`: 221 to 223 °C.
Next, `CCN(CC)S(=O)(=O)c1ccc(Oc2cccc(C)c2)c(N)c1`: 122 to 124 °C.
Next, `COc1cc(C(=O)CBr)ccc1OC(F)F`: 45 to 46 °C; `Cc1nn(Cc2ccccc2)c(Cl)c1C(=O)O`: 180 to 182 °C; `Cc1c(C(=O)O)cnn1C1CCCC1`: 99 to 101 °C.
Compound `O=C(O)c1cc2c(cc1O)CCCC2` gave a melting point of 170 to 172 °C.
For `CC(c1ccc(Cl)cc1Cl)S(N)(=O)=O` (stereo not drawn) the value was 123 to 125 °C; for `CC(C)c1nc(C(=O)O)nn1-c1c(Cl)cccc1Cl`, 179 to 181 °C.
For `CC(C)n1ncc2c(C(=O)O)cc(C3CC3)nc21` the value was 144 to 146 °C; for `CN1CCC(C(=O)O)CC1=O` (stereo not drawn), 163 to 165 °C.
Next, `CC(C)(C)OC(=O)Nc1ccc(Cc2nc(C(=O)O)cs2)cc1`: 164 to 166 °C; `COCCNC(=O)C1CCNCC1`: 158 to 160 °C.
`CCCOc1ccc(C(=O)NN)cc1` showed a melting point of 88 to 90 °C.
In turn, `CC(C)(C)OC(=O)N1CC2(CNC(=O)C2)C1` had a melting point of 163 to 165 °C.
Next, `O=C(O)C1CCN(S(=O)(=O)c2cc([N+](=O)[O-])ccc2Cl)CC1`: 42 to 44 °C; `Cc1[nH]c2ccc(Cl)cc2c1C(=O)O`: 193 to 195 °C; `CCOc1cc(C=O)ccc1OCc1c(Cl)cccc1Cl`: 115 to 117 °C.
Take `O=C(Cc1ccccn1)c1ccc(Br)cc1`: the melting point is 126 to 128 °C.
Next, `CS(=O)(=O)c1ccc(C(=O)c2ccccc2)cc1`: 131 to 133 °C.
For `O=[N+]([O-])c1cc(S(=O)(=O)C(F)(F)F)ccc1Cl` the value was 57 to 59 °C; for `Cc1cccc(CC(N)=S)c1`, 75 to 77 °C; for `O=C(O)CCC(=O)Nc1nccs1`, 257 to 259 °C.
For `CS(=O)(=O)c1ccc(OCCCC(=O)O)cc1` the value was 150 to 152 °C.
As for `NC(CSCCOc1ccccc1)C(=O)O` (stereo not drawn), the melting point was 214 to 216 °C.
Next, `O=C(CCl)NC1CCN(C(=O)CCc2ccccc2)CC1`: 117 to 119 °C; `Nc1cc(C(=O)O)ccc1-n1cnnc1`: 334 to 336 °C.
Next, `O=S(=O)(Cl)c1cnc2ccsc2c1`: 129 to 131 °C.
For the compound `O=C(O)C1CCCN(S(=O)(=O)c2ccc3ccccc3c2)C1` (stereo not drawn), the melting point was in the range of 137 to 139 °C.
Next, `O=Cc1cn(-c2ccccc2)cn1`: 125 to 127 °C; `CCOC(C(=O)O)(c1ccccc1)c1ccccc1`: 113 to 115 °C; `COc1cc(C=O)cc(Br)c1OC(F)F`: 90 to 92 °C.
For `CC(=O)Nc1ccc(SCC(=O)O)cc1` the value was 156 to 158 °C; for `O=C(O)c1c(C2CC2)nc2sccn12`, 163 to 165 °C; for `CC(=O)CC(=O)Nc1ccc(NC(=O)C2CC2)cc1`, 183 to 185 °C.
For `Cc1cc(N)n(C2CCS(=O)(=O)C2)n1` (stereo not drawn) the value was 215 to 217 °C; for `Cc1ccccc1C(O)CN` (stereo not drawn), 88 to 90 °C.
For the compound `BrC12CC3CC(C1)CC(Br)(C3)C2`, the melting point lay in the range of 108 to 110 °C.
On to `Nc1cc(CC2CCCCC2)n[nH]1`, for which the melting point lay within 72 to 74 °C.
Next, `Clc1nc(-c2ccccc2)nc2scc(-c3ccccc3)c12`: 147 to 149 °C; `COC(=O)c1ccc2[nH]cc(C=O)c2c1`: 230 to 232 °C.
Next, `Cc1sc(C(=O)O)cc1S(=O)(=O)Cl`: 148 to 150 °C.
For `Cn1cc([N+](=O)[O-])cc1C(=O)NCC(=O)O` the value was 130 to 132 °C; for `O=C(O)C1CC(=O)N(CCOc2ccccc2Cl)C1` (stereo not drawn), 138 to 140 °C.
`COC(C)C(N)=S` (stereo not drawn) displayed a melting point of 58 to 60 °C.
Next, `CCOc1ccccc1C(N)(C(=O)O)C(F)(F)F` (stereo not drawn): 119 to 121 °C; `NS(=O)(=O)c1ccc(Cl)cn1`: 125 to 127 °C; `OC1CCc2ccc(F)cc21` (stereo not drawn): 41 to 43 °C.
For `Cc1ccc(Oc2ccc(Cl)cc2NC(=O)CCl)cc1` the value was 87 to 89 °C; for `O=[N+]([O-])c1cc(S(=O)(=O)N2CCOCC2)ccc1O`, 217 to 219 °C.
Next, `Nc1ccnc(C(=O)O)c1`: 198 to 200 °C; `O=C(O)C=Cc1cc(Cl)ccc1OCc1ccc(Cl)cc1`: 162 to 164 °C; `N#Cc1ccc(-n2nccc2N)cc1`: 114 to 116 °C.
`O=C(O)c1ccc(S(=O)(=O)Nc2ccncc2)cc1` yielded a melting point of 297 to 299 °C.
Next, `O=C(O)c1cccn1-c1ccc(I)cc1`: 199 to 201 °C; `CS(=O)(=O)c1cccc(C(=O)c2ccc(Cl)cc2)c1`: 107 to 109 °C.
`CCc1cccc2c(C3=CCNCC3)c[nH]c12` displayed a melting point of 190 to 192 °C.
The compound `O=C(O)c1cccc(OCC(F)(F)F)n1` had a melting point of 138 to 140 °C.
Next, `O=C(O)c1ccc(Cl)c(S(=O)(=O)Nc2ccc(Br)cc2)c1`: 225 to 227 °C; `NC(=O)c1cccnc1N1CCNCC1`: 145 to 147 °C; `COc1ccc(N)cc1NC(=O)OC(C)(C)C`: 108 to 110 °C.
For `O=C(CCl)c1ccc(Oc2ccccc2)cc1` the value was 54 to 56 °C; for `CC(CC(=O)O)c1ccc(C(F)(F)F)cc1` (stereo not drawn), 88 to 90 °C.
For `Fc1cc2nc(CCl)[nH]c2cc1F` the value was 150 to 152 °C.
Consider `COc1ccc2c(c1)c(C(=O)O)c(C)n2C1CCCC1`, for which the melting point is 174 to 176 °C.
For `CC(=O)NCc1ccc(C(=O)O)s1` the value was 186 to 188 °C; for `NS(=O)(=O)c1ccc(N2CCNCC2)cc1`, 219 to 221 °C; for `COC(=O)c1[nH]n(-c2ccc(C(=O)O)cc2)c(=O)c1CCO`, 233 to 235 °C.

As usually defined, the melting point is the temperature, or range, at which the solid turns liquid.
